Like-named read-outs stand apart in the source and are kept apart here.
Assays:
RNA duplex = RNA duplex fluorescence assay; details: 20 μM compound
[1] = molecular target: T1, RNA binding to HCV-NS5BΔ21 (Hepatitis C virus genotype 1b, UniProt O92972); assay: HCV-NS5BΔ21-RNA ELISA assay; details: dose-dependent
T1 construct: made in house; host or cells: Escherichia coli C41(DE3)
Protocol: Ninety-six-well plates were coated with streptavidin (100 μg/ml in 0.1 M NaHCO3, 50 μl/well) overnight at 4°C. The plates were washed six times with 200 μl phosphate-buffered saline (PBS)-T and blocked with 50 μl of 3% BSA and 0.1 μg/ml of streptavidin in PBS overnight at 4°C, then four times with 0.1% PBS-Tween. A mix of 5 pmol of biotinylated RNA and 0.5 μg of HCV-NS5BΔ21 previously incubated for 30 min at 37°C in a binding buffer containing 50 mM Tris (pH 7.5), 150 mM NaCl, 0.02 mg/ml yeast tRNA and 0.2 mg/ml BSA was added (50 μl/well) and incubated 1 h at room temperature. The plates were washed six times with 200 μl/well PBS-T, and the 6His mAB/HRP conjugate (Clontech, Mountain View, CA, USA) in PBS 1:1000 (50 μl/well) was added and incubated for 1 h at room temperature. The plates were washed six times with 200 μl/well PBS-T. A mix of enhanced chemiluminescence reagent was added (50 μl/well) and luminescence was measured.

[2] = molecular target: T2, HCV-NS5BΔ21 RdRp genotype 1a (strain H77) (Hepatitis C virus genotype 1a, UniProt P27958); assay: cell-free HCV-NS5BΔ21 polymerase assay, genotype 1a (H77); format: biochemical
T2 construct: His6 (N); made in house; host or cells: Escherichia coli C41(DE3)
Protocol: (§1) The HCV RdRps (NS5B protein) from reference strains H77 (genotype 1a), J4 (genotype 1b) and JFH1 (genotype 2a), truncated of their 21 C-terminal amino acids to ensure solubility (NS5BΔ21) and carrying a hexahistidine tag (His6-Tag) at their N-terminus, were expressed in Escherichia coli C41(DE3) and purified as previously described ([20]). Briefly, cultures were grown at 37°C for ∼1 h and induced with 1 mM isopropyl β-D-thiogalactoside for 4 h at 37°C. […] After sonication, cell lysates were clarified by centrifugation, and chromatography was performed on a Ni-NTA column (Qiagen, Hilden, Germany). The bound protein was eluted in 1 ml fractions with a buffer containing 50 mM NaH2PO4 (pH 8.0), 500 mM NaCl and 250 mM imidazole. NS5BΔ21-enriched fractions were selected using a Bradford colorimetric assay, and HCV-NS5BΔ21 purity was determined by Coomassie-stained sodium dodecyl sulfate-polyacrylamide electrophoresis gel (SDS-PAGE) analysis. Purified NS5BΔ21 fractions were pooled and dialyzed against a buffer containing 5 mM Tris (pH 7.5), 0.2 M sodium acetate, 1 mM DTT, 1 mM ethylenediaminetetraacetic acid (EDTA) and 10% glycerol. […]

[3] = molecular target: T3, HCV-NS5BΔ21 RdRp genotype 2a (strain JFH1) (Hepatitis C virus genotype 2a, UniProt Q99IB8); assay: cell-free HCV-NS5BΔ21 polymerase assay, genotype 2a (JFH1); format: biochemical
T3 construct: His6 (N); made in house; host or cells: Escherichia coli C41(DE3)
Protocol: as §1

[4] = molecular target: T1, RNA binding to HCV-NS5BΔ21; assay: RNA binding assay (EMSA); details: fixed concentration of HCV-NS5BΔ21, increasing compound
Protocol: RNA binding was studied by means of the electrophoretic mobility shift assay (EMSA) with minor modifications. Briefly, 0.5 μg/ml of HCV-NS5BΔ21 was incubated with 1 μg of a 500 bp RNA at 37°C for 30 min in 20 μl of a binding buffer containing 10 mM Tris pH 7.5, 1 mM EDTA, 100 mM KCl, 0.1 mM DTT, 5% vol/vol glycerol, 10 μg/ml bovine serum albumin (BSA), in the presence of increasing concentrations of the tested compound. Samples were then loaded onto a non-denaturing agarose gel. The gel was incubated 20 min in SYBR green EMSA Nucleic Acid Gel Stain (Invitrogen, Carlsbad, CA, USA). After washing, the gel was visualized under ultraviolet transillumination.

[5] = test system: HCV NS5B protein expression; assay: Western blot analysis of NS5B in Con1 replicon cells; format: cell-based, hepatitis C virus; details: Huh7.5 cells, 72 h, increasing concentrations
Protocol: HCV Con1 replicon-harboring cells were seeded at a density of 90 000 cells per well in 6-well plates. […] NS5B and actin were detected using specific monoclonal antibodies (Enzo Life Sciences, Firmingdale, NY, USA and Sigma Aldrich, Saint Louis, MO, USA, respectively).

[6] = molecular target: T4, HCV-NS5BΔ21 RdRp genotype 1b (strain J4) (Hepatitis C virus genotype 1b, UniProt O92972); assay: biochemical; set-up: His6 (N); made in house; host or cells: Escherichia coli C41(DE3)
Protocol: The HCV RdRps (NS5B protein) from reference strains H77 (genotype 1a), J4 (genotype 1b) and JFH1 (genotype 2a), truncated of their 21 C-terminal amino acids to ensure solubility (NS5BΔ21) and carrying a hexahistidine tag (His6-Tag) at their N-terminus, were expressed in Escherichia coli C41(DE3) and purified as previously described ([20]). Briefly, cultures were grown at 37°C for ∼1 h and induced with 1 mM isopropyl β-D-thiogalactoside for 4 h at 37°C. […] After sonication, cell lysates were clarified by centrifugation, and chromatography was performed on a Ni-NTA column (Qiagen, Hilden, Germany). The bound protein was eluted in 1 ml fractions with a buffer containing 50 mM NaH2PO4 (pH 8.0), 500 mM NaCl and 250 mM imidazole. NS5BΔ21-enriched fractions were selected using a Bradford colorimetric assay, and HCV-NS5BΔ21 purity was determined by Coomassie-stained sodium dodecyl sulfate-polyacrylamide electrophoresis gel (SDS-PAGE) analysis. Purified NS5BΔ21 fractions were pooled and dialyzed against a buffer containing 5 mM Tris (pH 7.5), 0.2 M sodium acetate, 1 mM DTT, 1 mM ethylenediaminetetraacetic acid (EDTA) and 10% glycerol.
(§2) The cell-free HCV-NS5BΔ21 polymerase assay is based on the real-time measurement of the amount of double-stranded RNA synthesized in the presence of HCV-NS5BΔ21, a homopolymeric RNA template (poly U or poly C, GE Healthcare, Chalfont St. Giles, UK) and the corresponding nucleotide, by means of an intercalating agent (SYBR® Green, Applied Biosystems, Carlsbad, CA, USA), as previously described ([20]). For screening, HCV-NS5BΔ21 polymerase activity was quantified by the slope of fluorescence increase in the presence of 20 μM of the tested flavonoid compounds and compared with the control reaction containing no inhibitor. […] The reported values are the average of three independent measurements performed in duplicate. For kinetics analysis, initial reaction velocities were measured at different nucleotide (adenosine triphosphate (ATP) or GTP) and studied compound concentrations, without pre-incubation and in the presence of 50 μg/ml of the corresponding homopolymeric RNA template (Poly U and Poly C, respectively). The concentration of NS5BΔ21 (J4 strain, genotype 1b) in the reaction was 0.1 mg/ml. Kinetics data were graphically represented as double reciprocal plots. Data points were fitted by linear regression to identify the inhibition mode of the compound.

[7] = test system: genotype 2a infectious J6/JFH1 strain; assay: J6/JFH1 infection in cell culture (HCVcc, Huh7.5 cells); format: cell-based; details: Hepatitis C virus, Huh7.5, 72 h, read-out: EC50 J6/JFH1 replication
Protocol: The plasmid pFL-R-luc2A-ubi-J6/JFH1, containing the full-length cDNA of the chimeric J6/JFH1 HCV genotype 2a clone and the Renilla luciferase gene, was used to generate infectious HCV particles (HCVcc) in Huh7.5 cell culture. Huh7.5 cells were seeded in 48-well plates at a density of 10 000 cells/well, infected 24 h later with 100 μl of HCVcc and incubated overnight at 37°C. After incubation, the supernatants were removed and J6/JFH1-infected cells were washed with fresh medium. Increasing concentrations of the tested compounds were added in a medium containing 1% DMSO, and the cells were incubated 72 h at 37°C. Then, the cells were washed once with Dulbecco's PBS (Invitrogen), and 75 μl Renilla lysis buffer (Promega) was added to each well. Note that 20 μl of lysate was mixed with the luciferase assay substrate, as specified by the manufacturer. Luciferase activity was measured for 10 s in a Berthold luminometer.

HCV-NS5BΔ21 RdRp mutants [8] = format: biochemical, hepatitis C virus; details: S96A and G557A mutants
From the text: as §2

HCV-NS5BΔ21 RdRp mutants [9] = molecular target: T5, HCV-NS5BΔ21 RdRp mutants (Hepatitis C virus genotype 1b, UniProt O92972, V2535I); format: biochemical; details: enzyme assay and genotype 1b subgenomic replicon, data not shown
T5 construct: His6 (N); made in house; host or cells: Escherichia coli C41(DE3)
From the text: as §2

HCV-NS5BΔ21 RdRp mutants [10] = molecular target: T6, HCV-NS5BΔ21 RdRp mutants (Hepatitis C virus genotype 1b, UniProt O92972, F2581Y); format: biochemical; details: F162Y variant (33% of wild-type activity at baseline)
T6 construct: His6 (N); made in house; host or cells: Escherichia coli C41(DE3)
From the text: as §2

[11] = test system: HCV genotype 1b subgenomic replicon Con1; assay: microbe, parasite or virus in culture; details: Hepatitis C virus, Huh7.5, 72 h, read-out: EC50 replicon replication
Protocol: Each data point represents the average of at least three replicates in cell culture. HCV RNA level reductions after treatment were assessed by comparing the level of HCV RNA in compound-treated cells to that of control cells treated with 1% DMSO.

[12] = molecular target: T4, HCV-NS5BΔ21 RdRp genotype 1b (strain J4); assay: biochemical; details: range over three genotypes; read-out: IC50 in the enzyme assay, genotypes 1b, 1a and 2a
Protocol: as §1

T4 sequence (O92972 2420-2989, stated change not applied): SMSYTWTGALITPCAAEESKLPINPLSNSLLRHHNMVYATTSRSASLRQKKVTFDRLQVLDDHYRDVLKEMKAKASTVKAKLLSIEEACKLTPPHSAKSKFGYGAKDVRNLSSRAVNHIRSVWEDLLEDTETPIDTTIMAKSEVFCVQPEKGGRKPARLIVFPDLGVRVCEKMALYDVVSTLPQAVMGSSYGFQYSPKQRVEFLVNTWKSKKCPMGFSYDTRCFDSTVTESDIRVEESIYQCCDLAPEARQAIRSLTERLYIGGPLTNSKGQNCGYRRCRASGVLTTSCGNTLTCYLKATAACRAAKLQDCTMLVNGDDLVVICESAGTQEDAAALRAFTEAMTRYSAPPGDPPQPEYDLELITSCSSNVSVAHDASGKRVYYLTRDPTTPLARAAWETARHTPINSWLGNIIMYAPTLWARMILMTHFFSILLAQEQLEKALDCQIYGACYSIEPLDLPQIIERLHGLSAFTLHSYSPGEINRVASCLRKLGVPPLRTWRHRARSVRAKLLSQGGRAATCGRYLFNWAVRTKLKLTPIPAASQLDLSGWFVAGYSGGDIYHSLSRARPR
T1 sequence (O92972 2420-2989, stated change not applied): as above
T6 sequence (O92972 2420-2989 F2581Y): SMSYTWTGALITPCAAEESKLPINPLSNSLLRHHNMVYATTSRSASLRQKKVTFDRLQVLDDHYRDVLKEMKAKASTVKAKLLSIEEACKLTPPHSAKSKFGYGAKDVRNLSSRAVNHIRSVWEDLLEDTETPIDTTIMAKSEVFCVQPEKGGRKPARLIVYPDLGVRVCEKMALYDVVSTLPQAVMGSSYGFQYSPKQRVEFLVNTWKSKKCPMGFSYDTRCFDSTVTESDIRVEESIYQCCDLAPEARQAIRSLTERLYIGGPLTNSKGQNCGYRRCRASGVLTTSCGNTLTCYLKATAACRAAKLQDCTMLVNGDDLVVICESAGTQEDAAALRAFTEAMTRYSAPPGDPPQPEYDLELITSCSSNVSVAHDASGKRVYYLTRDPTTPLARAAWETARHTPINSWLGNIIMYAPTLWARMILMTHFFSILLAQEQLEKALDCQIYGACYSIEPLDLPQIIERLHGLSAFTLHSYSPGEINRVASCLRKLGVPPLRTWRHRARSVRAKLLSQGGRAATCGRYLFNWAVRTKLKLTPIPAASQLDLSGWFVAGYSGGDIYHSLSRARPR
T5 sequence (O92972 2420-2989 V2535I): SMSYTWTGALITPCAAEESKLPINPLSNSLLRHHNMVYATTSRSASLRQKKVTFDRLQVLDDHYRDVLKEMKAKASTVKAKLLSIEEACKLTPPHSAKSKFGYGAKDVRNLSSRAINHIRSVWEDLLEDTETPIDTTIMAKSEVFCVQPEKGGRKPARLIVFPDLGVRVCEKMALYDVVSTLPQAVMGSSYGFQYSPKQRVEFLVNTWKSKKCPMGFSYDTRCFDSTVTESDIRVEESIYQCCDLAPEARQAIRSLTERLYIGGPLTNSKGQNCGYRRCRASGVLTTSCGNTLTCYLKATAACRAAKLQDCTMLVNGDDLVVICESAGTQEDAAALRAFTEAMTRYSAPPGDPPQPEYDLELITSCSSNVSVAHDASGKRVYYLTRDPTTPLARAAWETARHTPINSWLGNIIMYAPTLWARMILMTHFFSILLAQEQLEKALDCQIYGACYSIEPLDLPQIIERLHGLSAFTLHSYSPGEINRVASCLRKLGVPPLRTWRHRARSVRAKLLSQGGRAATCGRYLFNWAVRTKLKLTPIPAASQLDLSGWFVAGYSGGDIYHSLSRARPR
T2 sequence (P27958 2421-2990, stated change not applied): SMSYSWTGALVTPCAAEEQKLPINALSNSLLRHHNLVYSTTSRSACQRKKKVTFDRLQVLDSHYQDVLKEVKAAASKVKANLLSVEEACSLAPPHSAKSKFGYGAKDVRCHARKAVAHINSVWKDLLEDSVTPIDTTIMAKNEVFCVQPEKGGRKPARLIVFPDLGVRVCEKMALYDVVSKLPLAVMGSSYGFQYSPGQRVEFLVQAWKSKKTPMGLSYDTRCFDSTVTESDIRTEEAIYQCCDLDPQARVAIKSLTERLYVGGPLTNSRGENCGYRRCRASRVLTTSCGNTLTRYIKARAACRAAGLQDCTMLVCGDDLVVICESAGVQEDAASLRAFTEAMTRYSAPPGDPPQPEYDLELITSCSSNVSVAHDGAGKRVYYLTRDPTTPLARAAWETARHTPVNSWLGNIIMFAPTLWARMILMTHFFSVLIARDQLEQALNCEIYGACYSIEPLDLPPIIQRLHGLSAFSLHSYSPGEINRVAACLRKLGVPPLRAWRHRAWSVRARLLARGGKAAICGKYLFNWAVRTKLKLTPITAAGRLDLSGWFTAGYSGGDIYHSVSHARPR

O=c1c(O)c(-c2ccc(O)c(O)c2)oc2cc(O)c(O)c(O)c12 [Quercetagetin]
RNA duplex formation (RNA duplex): not inhibited
inhibition of RNA binding, EC50 [1]: of the same order as that in the enzyme assay
IC50 [2]: 2.8 ± 0.4 µM
IC50 [3]: 6.1 ± 1.6 µM
amount of free RNA [4]: increased in a quercetagetin concentration-dependent manner
NS5B protein expression [5]: inhibited NS5B protein expression in a dose-dependent manner
inhibition at 20 µM ([6]; 20 μM compound): 85.6%
Slope of fluorescence increase ([6]; 20 μM compound, no treatment control slope 62.0): 8.9
IC50 ([6]; genotype 1b (strain J4), read-out: IC50 HCV-NS5BΔ21 polymerase activity): 4.3 ± 0.7 µM
mode of inhibition (double-reciprocal plots) ([6]; increasing ATP or GTP with poly-U or poly-C): non-competitive
EC50 [7]: 40.2 ± 17.7 µM
change of susceptibility (HCV-NS5BΔ21 RdRp mutants [8]): No change
susceptibility of V116I variant (HCV-NS5BΔ21 RdRp mutants [9]): did not reduce
reduction of catalytic activity by the compound (HCV-NS5BΔ21 RdRp mutants [10]): 3 fold
EC50 [11]: 5.4 ± 3.3 µM
IC50 [12]: 2.8 to 6.1 µM

Reference: paper PMC4132742, “Inhibition of RNA binding to hepatitis C virus RNA-dependent RNA polymerase: a new mechanism for antiviral intervention” (Nucleic Acids Research, 2014)
